Positions count from the first letter of the chain named.
How the values were obtained:
[1] = target: T1, AtPPO1 S305L Y362F G404A (SEQ ID NO.129) (Arabidopsis thaliana, UniProt P55826, G404A/S305L/Y362F); experiment: fluorescent Protoporphyrinogen Oxidase assay, crude extract; assay type: biochemical; conditions: read-out: percentage inhibition
T1 construct: made in house; host or cells: E. coli BL21 (DE3) hemG, crude extract
T1 sequence (P55826 35-537 S305L/Y362F/G404A): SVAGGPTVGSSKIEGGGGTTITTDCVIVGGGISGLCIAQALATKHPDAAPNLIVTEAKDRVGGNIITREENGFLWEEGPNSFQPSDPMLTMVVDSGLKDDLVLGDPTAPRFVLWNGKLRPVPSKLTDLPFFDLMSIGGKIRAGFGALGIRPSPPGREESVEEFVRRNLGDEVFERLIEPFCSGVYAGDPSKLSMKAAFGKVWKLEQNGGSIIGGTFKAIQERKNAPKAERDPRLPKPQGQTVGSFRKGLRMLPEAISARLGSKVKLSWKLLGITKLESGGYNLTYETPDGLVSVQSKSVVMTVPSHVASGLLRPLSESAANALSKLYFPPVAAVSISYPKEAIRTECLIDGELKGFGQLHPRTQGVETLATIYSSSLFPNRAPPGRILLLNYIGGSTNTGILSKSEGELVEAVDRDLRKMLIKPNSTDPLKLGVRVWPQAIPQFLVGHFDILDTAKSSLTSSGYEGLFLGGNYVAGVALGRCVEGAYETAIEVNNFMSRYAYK
Experimental: (§1) A pET24 plasmid containing a DNA sequence encoding each identified variant mutant of AtPPO1 derived from Arabidopsis thaliana, codon-optimised for expression in E. coli, and under control of a T7 promoter, was synthesised by Twist Bioscience. This plasmid was expressed in E. coli BL21 (DE3) hemG with 50 μg/mL kanamycin and 25 μg/mL chloramphenicol selection. Overnight cultures grown at 37° C. were used to inoculate 150 ml AIM (AIM-Terrific Broth Base including Trace elements, Formedium) in 500 ml shake flasks at a ratio of 1:100. Cultures were grown at 37° C., 200 rpm for 3 hours and then overnight at 26° C. Cells were harvested by 4° C. centrifugation for 20 minutes at 600 rpm. Cells were stored at −80° C. until extraction. 0.5-1 g of cell pellet from was thawed and resuspended in ratio of 1:1 in lysis buffer (20 mM Tris pH8, 500 mM sodium chloride, 10% glycerol, 1× complete Protease EDTA-free Inhibitor Tablet (Roche)). The resuspension was sonicated at 50% using 10-20 cycles of 10 seconds, 20 seconds off. After sonication Triton X-100 was added to the lysates at a final concentration of 0.5%. The lysates were centrifuged at 13.00 rpm for 10 min at 4° C. The crude extracts (i.e, supernatants) were stored at −80° C. Protein concentration was measured and calculated using the absorbance at 280 nm. Extracts were diluted 1 in 4 and 10 uL was analysed by SDS PAGE.
(§2) Variant crude extracts were assayed in a fluorescent Protoporphyrinogen Oxidase assay in black 384 well plates with a clear bottom. The total volume of the reaction mixture was 100 ul and contained 100 mM K2HPO4 pH7.2, 1 mM Na2EDTA, 5 mM DTT, 20% glycerol (v/v), 0.025% Tween 20 (v/v). Reactions were started with addition of 1 uM protoporphyrinogen IX final assay concentration. Fluorescence was monitored over 30 min using a Tecan plate reader with an excitation wavelength of 405 nm, emission wavelength of 635 nm, gain of 90 and 15 flashes. 10 ul of 3-fold serial dilution of crude extract in 100 mM K2HPO4 pH7.2, 1 mM Na2EDTA, 5 mM DTT, 20% glycerol (v/v), 0.05% Tween 20 (v/v) was tested in the assay against 1% DMSO and 100 ppm herbicide B to determine the correct amount of crude extract to add to the assay to observe activity. 10 ul of the appropriate crude extract dilution was then tested in the fluorescent Protoporphyrinogen Oxidase assay against DMSO and 10-fold dose response of each compound (herbicides A to E) with a top rate of 100 ppm.
(§3) The percentage inhibition was calculated as the activity in the presence of one of four concentrations of each herbicide compound A to E (note that the compounds labelled as A to E are identified hereinabove in the relevant section of the description) as a percentage of the enzyme activity in DMSO (Table 5).

[2] = target: T2, AtPPO1 S305L Y426V L479M (SEQ ID NO.131) (Arabidopsis thaliana, UniProt P55826, L479M/S305L/Y426V); experiment: as above; assay type: biochemical; conditions: read-out: percentage inhibition
T2 construct: made in house; host or cells: E. coli BL21 (DE3) hemG, crude extract
T2 sequence (P55826 35-537 S305L/Y426V/L479M): T1 sequence (P55826 35-537 S305L/Y362F/G404A) with F328Y, A370G, Y392V, L445M
Experimental: as §1, §2, §3

CCOC(=O)[C@]1(C)CC(c2cc(-n3c(=O)n(C)c(=S)n(C)c3=O)c(F)cc2Cl)=NO1 [Herbicide D, ethyl (5S)-3-[2-chloro-5-(3,5-dimethyl-2,6-dioxo-4-thioxo-1,3,5-triazinan-1-yl)-4-fluoro-phenyl]-5-methyl-4H-isoxazole-5-carboxylate]
inhibition at 0.1 ppm [1]: 9% | inhibition at 1 ppm [1]: 45% | inhibition at 10 ppm [1]: 83% | inhibition at 100 ppm [1]: 96% | inhibition at 0.1 ppm [2]: 4% | inhibition at 1 ppm [2]: 46% | inhibition at 10 ppm [2]: 76% | inhibition at 100 ppm [2]: 97%

CCOC(=O)C1(C)CC(c2cc(-n3c(=O)cc(C(F)(F)F)n(C)c3=O)c(F)cc2Cl)=NO1 (stereo not shown) [Herbicide C, 3-(2-chloro-4-fluoro-5-(3-methyl-2,6-dioxo-4-trifluoromethyl-3,6-dihydropyrimidin-1(2H)-yl)phenyl)-5-methyl-4,5-dihydroisoxazole-5-carboxylic acid ethyl ester]
inhibition at 0.1 ppm [1]: 24% | inhibition at 1 ppm [1]: 76% | inhibition at 10 ppm [1]: 93% | inhibition at 100 ppm [1]: 100% | inhibition at 0.1 ppm [2]: 28% | inhibition at 1 ppm [2]: 59% | inhibition at 10 ppm [2]: 90% | inhibition at 100 ppm [2]: 100%

CCOC(=O)COc1ncccc1Oc1cc(-n2c(=O)cc(C(F)(F)F)n(C)c2=O)c(F)cc1Cl [Herbicide A, epyrifenacil]
inhibition at 0.1 ppm [1]: 25% | inhibition at 1 ppm [1]: 78% | inhibition at 10 ppm [1]: 92% | inhibition at 100 ppm [1]: 100% | inhibition at 0.1 ppm [2]: 0% | inhibition at 1 ppm [2]: 52% | inhibition at 10 ppm [2]: 87% | inhibition at 100 ppm [2]: 100%

C#CCN1C(=O)C(F)(F)Oc2cc(F)c(-n3c(=O)n(C)c(=S)n(C)c3=O)cc21 [Herbicide B, trifludimoxazin]
inhibition at 0.1 ppm [1]: 70% | inhibition at 1 ppm [1]: 93% | inhibition at 10 ppm [1]: 97% | inhibition at 100 ppm [1]: 100% | inhibition at 0.1 ppm [2]: 99% | inhibition at 1 ppm [2]: 96% | inhibition at 10 ppm [2]: 100% | inhibition at 100 ppm [2]: 100%

CC(C)N(C)S(=O)(=O)NC(=O)c1cc(-n2c(=O)cc(C(F)(F)F)n(C)c2=O)c(F)cc1Cl [Herbicide E, saflufenacil]
inhibition at 0.1 ppm [1]: 15% | inhibition at 1 ppm [1]: 53% | inhibition at 10 ppm [1]: 84% | inhibition at 100 ppm [1]: 100% | inhibition at 0.1 ppm [2]: 0% | inhibition at 1 ppm [2]: 28% | inhibition at 10 ppm [2]: 70% | inhibition at 100 ppm [2]: 87%

— patent publication US20260297542A1, “HERBICIDE RESISTANT PLANTS” (SYNGENTA CROP PROTECTION AG, priority 2023, published 2026)
